Assay results as given in article PMC10315696, “PSMA-GCK01: A Generator-Based ^99mTc/^188Re Theranostic Ligand for the Prostate-Specific Membrane Antigen” (Journal of Nuclear Medicine, 2023).
*1 amine or outer side, *2 acyl side, *3 side chain or, on linkers, in order; H or OH if unused. Where a SMILES comes first, the peptide text is derived from it. [ ]: non-standard residue; d: D form. The star is where a group is joined. X2 = O=C(O)CCC(NC(=O)NC(CCCCN*)C(=O)O)C(=O)O; 2Nal = N[CH](Cc1ccc2ccccc2c1)C(=O)O; X1 = O=C(C1CCC(N[*:1])CC1)[*:2]; Mercaptoacetyl = O=C(CS)*

Columns and labels:
[1] = system: patients with metastatic castration-resistant prostate cancer; assay: Clinical imaging and therapy under compassionate care; assay type: in vivo, humans
Experimental: After giving written informed consent, 3 patients with metastatic castration-resistant prostate cancer received PSMA-radioligand therapy (RLT) and the related companion diagnostic under compassionate-care regulations. Prospective clinical trial registration is not required for compassionate care that is performed under an individual medical indication.
The timeline of imaging time points is illustrated in Figure 2.

[2] = system: mice; assay: Toxicologic investigation (OECD guideline)
Experimental: The evaluation was conducted using well-known standard methods ([16],[17]).

Row | SMILES | clearance route ([1]; dual-photopeak imaging) | mortality ([2]; mice) | dose without toxicologic effect ([2]; mice, third-party preclinical research organization) | organ weights or macroscopic observations ([2]; terminal or recovery euthanasia) | liver-to-kidney uptake ratio compared with PSMA-617 ([1]; initially, intraindividual comparison)
1 | O=C([O-])CN1CCN(CC(=O)[O-])CCN(CC(=O)NCC2CCC(C(=O)N[C@@H](Cc3ccc4ccccc4c3)C(=O)NCCCC[C@H](NC(=O)N[C@@H](CCC(=O)O)C(=O)O)C(=O)O)CC2)CCN(CC(=O)[O-])CC1.[177Lu+3] (some centres unmarked) [^177Lu-PSMA-617, reference compound] | combined renal and hepatointestinal clearance route | – | – | – | –
2 | O=C(O)CCC(NC(=O)NC(CCCCNC(=O)C(Cc1ccc2ccccc2c1)NC(=O)C1CCC(NC(=O)C(CO)NC(=O)C(CO)NC(=O)C(CO)NC(=O)CS)CC1)C(=O)O)C(=O)O (centres unmarked) [PSMA-GCK01] (Mercaptoacetyl-SSS[X1][2Nal]-X2; configuration not given here) | – | No test article–related mortality | up to 2 mg/kg | No differences | higher
